Article PMC5218480 (PLoS ONE, 2017)

System: MV-4-11 cells
Assay: Gene expression microarray analysis (Affymetrix PrimeView) and GSEA
Assay type: cell-based, human
Design: RFU PODN (11730768_x_at) / Fold change /veh PODN (11730768_x_at) / RFU LINC00158 (11744669_a_at) / Fold change /veh LINC00158 (11744669_a_at) / RFU DUSP10 (11751237_a_at) / Fold change /veh DUSP10 (11751237_a_at) / RFU ID3 (11757404_x_at) / Fold change /veh ID3 (11757404_x_at) / RFU PLEKHG5 (11737974_s_at) / Fold change /veh PLEKHG5 (11737974_s_at) / RFU LRRC4B (11730491_at) / Fold change /veh LRRC4B (11730491_at) / RFU GIMAP4 (11747438_a_at) / Fold change /veh GIMAP4 (11747438_a_at) / RFU KRT8 (11758183_x_at) / Fold change /veh KRT8 (11758183_x_at) / RFU CNN1 (11734310_a_at) / Fold change /veh CNN1 (11734310_a_at) / RFU VPS37D (11726825_at) / Fold change /veh VPS37D (11726825_at) / RFU C10orf10 (11716522_x_at) / Fold change /veh C10orf10 (11716522_x_at) / RFU KIR2DL2 /// KIR2DL4 /// KIR2DL5A /// KIR2DL5B /// KIR2DS1 /// KIR2DS2 /// KIR2DS3 /// KIR2DS4 /// KIR3DL3 /// KIR3DL3 /// KIR3DS1 (11738374_at) / Fold change /veh KIR2DL2 /// KIR2DL4 /// KIR2DL5A /// KIR2DL5B /// KIR2DS1 /// KIR2DS2 /// KIR2DS3 /// KIR2DS4 /// KIR3DL3 /// KIR3DL3 /// KIR3DS1 (11738374_at) / RFU C1QL1 (11718748_at) / Fold change /veh C1QL1 (11718748_at) / RFU TMPRSS4 (11747572_a_at) / Fold change /veh TMPRSS4 (11747572_a_at) / RFU HAMP (11756126_x_at) / Fold change /veh HAMP (11756126_x_at) / RFU RNFT2 (11725882_a_at) / Fold change /veh RNFT2 (11725882_a_at) / RFU NR4A2 (11747474_a_at) / Fold change /veh NR4A2 (11747474_a_at) / RFU ABCC12 (11746883_a_at) / Fold change /veh ABCC12 (11746883_a_at) / RFU TMEM136 (11760407_x_at) / Fold change /veh TMEM136 (11760407_x_at) / RFU CLDN22 /// WWC2 (11732394_at) / Fold change /veh CLDN22 /// WWC2 (11732394_at) / RFU HLA-DPB1 (11760878_x_at) / Fold change /veh HLA-DPB1 (11760878_x_at) / RFU SPINT1 (11716480_a_at) / Fold change /veh SPINT1 (11716480_a_at) / RFU GAP43 (11754022_s_at) / Fold change /veh GAP43 (11754022_s_at) / RFU A4GNT (11735810_at) / Fold change /veh A4GNT (11735810_at) / RFU PRB3 (11715151_x_at) / Fold change /veh PRB3 (11715151_x_at) / RFU TUBB4B (11761932_at) / Fold change /veh TUBB4B (11761932_at) / RFU CAPN14 (11732068_a_at) / Fold change /veh CAPN14 (11732068_a_at) / RFU TMCC2 (11721928_a_at) / Fold change /veh TMCC2 (11721928_a_at) / RFU IRGQ (11745062_a_at) / Fold change /veh IRGQ (11745062_a_at) / RFU FAM174B (11720279_a_at) / Fold change /veh FAM174B (11720279_a_at) / RFU TMPRSS4 (11748680_a_at) / Fold change /veh TMPRSS4 (11748680_a_at) / RFU FAM212B (11763350_a_at) / Fold change /veh FAM212B (11763350_a_at) / RFU PLEKHG5 (11743358_a_at) / Fold change /veh PLEKHG5 (11743358_a_at) / RFU ZSCAN30 (11745921_a_at) / Fold change /veh ZSCAN30 (11745921_a_at) / RFU CMKLR1 (11741424_a_at) / Fold change /veh CMKLR1 (11741424_a_at) / RFU LOC101060620 /// MAPK8IP1 (11723275_at) / Fold change /veh LOC101060620 /// MAPK8IP1 (11723275_at) / RFU SPTSSB (11747773_x_at) / Fold change /veh SPTSSB (11747773_x_at) / RFU PRSS12 (11739890_at) / Fold change /veh PRSS12 (11739890_at) / RFU BIN1 (11741810_x_at) / Fold change /veh BIN1 (11741810_x_at) / RFU WNT11 (11732464_a_at) / Fold change /veh WNT11 (11732464_a_at) / RFU C10orf10 (11716521_a_at) / Fold change /veh C10orf10 (11716521_a_at) / RFU C5orf56 (11738089_at) / Fold change /veh C5orf56 (11738089_at) / RFU CYB561 (11721691_x_at) / Fold change /veh CYB561 (11721691_x_at) / RFU ANKRD19P (11752326_a_at) / Fold change /veh ANKRD19P (11752326_a_at) / RFU OR2T12 /// OR2T33 /// OR2T8 (11738714_s_at) / Fold change /veh OR2T12 /// OR2T33 /// OR2T8 (11738714_s_at) / RFU VCAN (11748164_a_at) / Fold change /veh VCAN (11748164_a_at) / RFU JSRP1 (11732532_at) / Fold change /veh JSRP1 (11732532_at) / RFU KRTAP10-11 (11738290_x_at) / Fold change /veh KRTAP10-11 (11738290_x_at) / RFU MYO3A (11730013_a_at) / Fold change /veh MYO3A (11730013_a_at) / RFU EBF3 (11725865_a_at) / Fold change /veh EBF3 (11725865_a_at) / RFU CAMK2N1 (11719241_x_at) / Fold change /veh CAMK2N1 (11719241_x_at) / RFU C5orf56 (11738088_a_at) / Fold change /veh C5orf56 (11738088_a_at) / RFU OLFML3 (11715873_a_at) / Fold change /veh OLFML3 (11715873_a_at) / RFU LOC100653217 /// NTM (11731650_a_at) / Fold change /veh LOC100653217 /// NTM (11731650_a_at) / RFU MAPK11 (11762145_a_at) / Fold change /veh MAPK11 (11762145_a_at) / RFU FIZ1 (11724087_x_at) / Fold change /veh FIZ1 (11724087_x_at) / RFU OASL (11726364_x_at) / Fold change /veh OASL (11726364_x_at) / RFU SOX15 (11748057_x_at) / Fold change /veh SOX15 (11748057_x_at) / RFU CD79A (11719716_a_at) / Fold change /veh CD79A (11719716_a_at) / RFU HIST1H1D (11736915_at) / Fold change /veh HIST1H1D (11736915_at) / RFU CASKIN2 (11723855_a_at) / Fold change /veh CASKIN2 (11723855_a_at) / RFU LOC730098 (11760151_x_at) / Fold change /veh LOC730098 (11760151_x_at) / RFU OR4N2 (11742367_at) / Fold change /veh OR4N2 (11742367_at) / RFU PRRT2 (11749266_a_at) / Fold change /veh PRRT2 (11749266_a_at) / RFU SNX32 (11753110_a_at) / Fold change /veh SNX32 (11753110_a_at) / RFU CDHR5 (11726645_a_at) / Fold change /veh CDHR5 (11726645_a_at) / RFU RCAN1 (11760418_a_at) / Fold change /veh RCAN1 (11760418_a_at) / RFU FAM167A (11723789_a_at) / Fold change /veh FAM167A (11723789_a_at) / RFU FAM26E (11764081_at) / Fold change /veh FAM26E (11764081_at) / RFU ISYNA1 (11749810_s_at) / Fold change /veh ISYNA1 (11749810_s_at) / RFU ACY1 (11761880_at) / Fold change /veh ACY1 (11761880_at) / RFU 11764098_at / Fold change /veh 11764098_at / RFU SAMD14 (11745864_x_at) / Fold change /veh SAMD14 (11745864_x_at) / RFU NPB (11741838_a_at) / Fold change /veh NPB (11741838_a_at) / RFU TMPRSS6 (11731388_a_at) / Fold change /veh TMPRSS6 (11731388_a_at) / RFU KRTAP10-2 (11738614_at) / Fold change /veh KRTAP10-2 (11738614_at) / RFU ARHGAP8 /// PRR5-ARHGAP8 (11727945_x_at) / Fold change /veh ARHGAP8 /// PRR5-ARHGAP8 (11727945_x_at) / RFU KRTAP5-7 /// NADSYN1 (11734609_at) / Fold change /veh KRTAP5-7 /// NADSYN1 (11734609_at) / RFU RASL12 (11751679_a_at) / Fold change /veh RASL12 (11751679_a_at) / RFU CDKN2B (11736163_a_at) / Fold change /veh CDKN2B (11736163_a_at) / RFU PRF1 (11729649_at) / Fold change /veh PRF1 (11729649_at) / RFU, ZNF638 /// ZNF638-IT1 / Fold change vs veh, ZNF638 /// ZNF638-IT1 / RFU, PANK3 / Fold change vs veh, PANK3 / RFU, SH3YL1 / Fold change vs veh, SH3YL1 / RFU, ZEB2 / Fold change vs veh, ZEB2 / RFU, NRIP1 / Fold change vs veh, NRIP1 / RFU, PTTG1IP / Fold change vs veh, PTTG1IP / RFU, CAPN2 / Fold change vs veh, CAPN2 / RFU, MED14 / Fold change vs veh, MED14 / RFU, SNORA58 / Fold change vs veh, SNORA58 / RFU, C1orf63 / Fold change vs veh, C1orf63 / RFU, LRRFIP1 / Fold change vs veh, LRRFIP1 / RFU, NDUFAF7 / Fold change vs veh, NDUFAF7 / RFU, SLC12A2 / Fold change vs veh, SLC12A2 / RFU, IBTK / Fold change vs veh, IBTK / RFU, ESF1 / Fold change vs veh, ESF1 / Fold change vs veh, TMEM50B / RFU, TAOK1 / Fold change vs veh, TAOK1 / RFU, ACBD3 / Fold change vs veh, ACBD3 / RFU, TMA16 / Fold change vs veh, TMA16 / RFU, RWDD3 / Fold change vs veh, RWDD3 / RFU, BCAT1 / Fold change vs veh, BCAT1 / RFU, EDEM3 / Fold change vs veh, EDEM3 / RFU, TMEM33 / Fold change vs veh, TMEM33 / RFU, WDR75 / Fold change vs veh, WDR75 / RFU, AHCTF1 / Fold change vs veh, AHCTF1 / RFU, TFRC / Fold change vs veh, TFRC / RFU, ZDHHC17 / Fold change vs veh, ZDHHC17 / RFU, NOM1 / Fold change vs veh, NOM1 / RFU, ARL8B / Fold change vs veh, ARL8B / RFU, ZBTB11 / Fold change vs veh, ZBTB11 / RFU, TAMM41 / Fold change vs veh, TAMM41 / RFU, KIAA1704 /// LOC100996395 / Fold change vs veh, KIAA1704 /// LOC100996395 / RFU, ING1 / Fold change vs veh, ING1 / RFU, TRMT61B / Fold change vs veh, TRMT61B / RFU, FUBP3 / Fold change vs veh, FUBP3 / RFU, TP53 / Fold change vs veh, TP53 / RFU, TNKS2 / Fold change vs veh, TNKS2 / RFU, ZFP14 / Fold change vs veh, ZFP14 / RFU, ACTR2 / Fold change vs veh, ACTR2 / RFU, PPP3R1 / Fold change vs veh, PPP3R1 / RFU, PIK3R1 / Fold change vs veh, PIK3R1 / RFU, HNRNPA1 / Fold change vs veh, HNRNPA1 / RFU, RNF170 / Fold change vs veh, RNF170 / RFU, ZNF28 / Fold change vs veh, ZNF28 / RFU, RNGTT / Fold change vs veh, RNGTT / RFU, OGT / Fold change vs veh, OGT / RFU, BRD1 / Fold change vs veh, BRD1 / RFU, MARS / Fold change vs veh, MARS / RFU, ZNF655 / Fold change vs veh, ZNF655 / RFU, FAHD1 / Fold change vs veh, FAHD1 / RFU, BDP1 / Fold change vs veh, BDP1 / RFU, LRRCC1 / Fold change vs veh, LRRCC1 / RFU, ARID1A / Fold change vs veh, ARID1A / RFU, ZNF146 / Fold change vs veh, ZNF146 / RFU, ZNF330 / Fold change vs veh, ZNF330 / RFU, GPN3 / Fold change vs veh, GPN3 / RFU, C9orf123 / Fold change vs veh, C9orf123 / RFU, N4BP2L2 / Fold change vs veh, N4BP2L2 / RFU, ARFIP1 / Fold change vs veh, ARFIP1 / RFU, FAM179B / Fold change vs veh, FAM179B / RFU, BCL10 / Fold change vs veh, BCL10 / RFU, UHRF1BP1L / Fold change vs veh, UHRF1BP1L / RFU, BET1 / Fold change vs veh, BET1 / RFU, CNOT2 / Fold change vs veh, CNOT2 / RFU, ZNF268 / Fold change vs veh, ZNF268 / Fold change vs veh, ZNF507 / RFU, DGCR2 / Fold change vs veh, DGCR2 / RFU, WDSUB1 / Fold change vs veh, WDSUB1 / Fold change vs veh, HSP90B1 /// MIR3652 / RFU, ADSS / Fold change vs veh, ADSS / RFU, GK / Fold change vs veh, GK / RFU, ZNF148 / Fold change vs veh, ZNF148 / RFU, TAF9 / Fold change vs veh, TAF9 / RFU, SLC1A5 / Fold change vs veh, SLC1A5 / RFU, SLMO2 / Fold change vs veh, SLMO2 / RFU, ABCC4 / Fold change vs veh, ABCC4 / RFU, LOC101060439 /// RAP1B / Fold change vs veh, LOC101060439 /// RAP1B / RFU, RFX7 / Fold change vs veh, RFX7 / RFU, GTPBP10 / Fold change vs veh, GTPBP10 / RFU, CNEP1R1 / Fold change vs veh, CNEP1R1 / RFU, BIVM-ERCC5 /// ERCC5 / Fold change vs veh, BIVM-ERCC5 /// ERCC5 / RFU, ILF3 / Fold change vs veh, ILF3 / RFU 11762660_at / Fold change /veh 11762660_at / RFU VCAN (11757783_s_at) / Fold change /veh VCAN (11757783_s_at) / RFU DDX43 (11728927_at) / Fold change /veh DDX43 (11728927_at) / RFU KRT8 (11758188_x_at) / Fold change /veh KRT8 (11758188_x_at) / RFU NKD1 (11759106_at) / Fold change /veh NKD1 (11759106_at) / RFU SRD5A1 (11742802_a_at) / Fold change /veh SRD5A1 (11742802_a_at) / RFU TPSAB1 /// TPSB2 (11721975_s_at) / Fold change /veh TPSAB1 /// TPSB2 (11721975_s_at) / RFU GSTM3 (11746129_a_at) / Fold change /veh GSTM3 (11746129_a_at) / RFU IL23R (11737362_x_at) / Fold change /veh IL23R (11737362_x_at) / RFU TMEM51 (11727254_a_at) / Fold change /veh TMEM51 (11727254_a_at) / RFU PIWIL2 (11732686_x_at) / Fold change /veh PIWIL2 (11732686_x_at) / RFU ORM1 (11744905_x_at) / Fold change /veh ORM1 (11744905_x_at) / RFU CCDC152 (11743942_at) / Fold change /veh CCDC152 (11743942_at) / RFU ECM1 (11717891_a_at) / Fold change /veh ECM1 (11717891_a_at) / RFU IL23R (11748794_a_at) / Fold change /veh IL23R (11748794_a_at) / RFU TNFAIP8L3 (11732012_x_at) / Fold change /veh TNFAIP8L3 (11732012_x_at) / RFU MBOAT4 (11741988_at) / Fold change /veh MBOAT4 (11741988_at) / RFU 11764193_at / Fold change /veh 11764193_at / RFU TMEM53 (11763286_at) / Fold change /veh TMEM53 (11763286_at) / RFU MAGEB2 (11727129_at) / Fold change /veh MAGEB2 (11727129_at) / RFU TMEM200A (11744735_a_at) / Fold change /veh TMEM200A (11744735_a_at) / RFU CCDC152 (11751479_a_at) / Fold change /veh CCDC152 (11751479_a_at) / RFU FAM211A (11726209_a_at) / Fold change /veh FAM211A (11726209_a_at) / RFU RGS16 (11746705_a_at) / Fold change /veh RGS16 (11746705_a_at) / RFU VCAN (11755009_s_at) / Fold change /veh VCAN (11755009_s_at) / RFU RHOB (11743442_s_at) / Fold change /veh RHOB (11743442_s_at) / RFU RGS16 (11720943_a_at) / Fold change /veh RGS16 (11720943_a_at) / RFU RGS16 (11720944_at) / Fold change /veh RGS16 (11720944_at) / RFU, VPS4B / Fold change vs veh, VPS4B / RFU, CREB1 / Fold change vs veh, CREB1 / RFU, DNAJC13 / Fold change vs veh, DNAJC13 / RFU, GNAQ / Fold change vs veh, GNAQ / RFU, CDK5R1 / Fold change vs veh, CDK5R1 / RFU, ZRANB3 / Fold change vs veh, ZRANB3 / RFU, CUL4A / Fold change vs veh, CUL4A / RFU, CCNY / Fold change vs veh, CCNY / RFU, UFL1 / Fold change vs veh, UFL1 / RFU, COG3 / Fold change vs veh, COG3 / RFU, DIAPH2 / Fold change vs veh, DIAPH2 / RFU, SKA2 / Fold change vs veh, SKA2 / RFU, AFF3 / Fold change vs veh, AFF3 / RFU, LMF1 / Fold change vs veh, LMF1 / RFU, IPO11 / Fold change vs veh, IPO11 / RFU, DFFB / Fold change vs veh, DFFB / RFU, FOXP1 / Fold change vs veh, FOXP1 / RFU, CARD8 / Fold change vs veh, CARD8 / RFU, STRN3 / Fold change vs veh, STRN3 / RFU, ADK / Fold change vs veh, ADK / RFU, RASSF2 / Fold change vs veh, RASSF2 / RFU, WIPF1 / Fold change vs veh, WIPF1 / RFU, LARP1B / Fold change vs veh, LARP1B / RFU, RASA1 / Fold change vs veh, RASA1 / RFU, RB1 / Fold change vs veh, RB1 / RFU, PPFIA1 / Fold change vs veh, PPFIA1 / RFU, MAT2A / Fold change vs veh, MAT2A / RFU, CCT5 / Fold change vs veh, CCT5 / RFU, WDR92 / Fold change vs veh, WDR92 / RFU, CUX1 / Fold change vs veh, CUX1 / RFU, TTC7A / Fold change vs veh, TTC7A / RFU, TMEM135 / Fold change vs veh, TMEM135 / RFU, DEPTOR / Fold change vs veh, DEPTOR / RFU, CPM / Fold change vs veh, CPM / RFU, DNAJB6 / Fold change vs veh, DNAJB6 / RFU, CACNA2D3 / Fold change vs veh, CACNA2D3 / RFU, DTX4 / Fold change vs veh, DTX4 / RFU, TFCP2 / Fold change vs veh, TFCP2 / RFU, GMCL1 /// GMCL1P1 / Fold change vs veh, GMCL1 /// GMCL1P1 / RFU, AEBP2 / Fold change vs veh, AEBP2 / RFU, SNHG1 /// SNORD22 /// SNORD25 /// SNORD26 /// SNORD27 /// SNORD28 /// SNORD29 /// SNORD31 / Fold change vs veh, SNHG1 /// SNORD22 /// SNORD25 /// SNORD26 /// SNORD27 /// SNORD28 /// SNORD29 /// SNORD31 / Fold change (Aza/veh), C12orf56 (ProbeSet 11735607_a_at) / Fold change (ACY-1035/veh), C12orf56 (ProbeSet 11735607_a_at) / Fold change (Aza/veh), FGFR1OP (ProbeSet 11751329_s_at) / Fold change (ACY-1035/veh), FGFR1OP (ProbeSet 11751329_s_at) / Fold change (Aza/veh), VPS36 (ProbeSet 11739960_a_at) / Fold change (ACY-1035/veh), VPS36 (ProbeSet 11739960_a_at) / RFU SYPL1 (11715823_x_at) / Fold change /veh SYPL1 (11715823_x_at) / RFU IGFBP7 (11715501_s_at) / Fold change /veh IGFBP7 (11715501_s_at) / RFU REEP3 (11722064_at) / Fold change /veh REEP3 (11722064_at) / RFU IGLL1 (11728026_x_at) / Fold change /veh IGLL1 (11728026_x_at): dose or concentration left out as unconfirmed
Conditions: MV-4-11 cells, 48 hours

Nc1ccc(-c2cccs2)cc1NC(=O)c1ccc2c(c1)cc(C1CC1)n2CCN1CCOCC1 [ACY-1035]
RFU CLDN22 /// WWC2 (11732394_at): 8.03 RFU
